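Compound exposure: 48 hours, 5 concentrations, 96-well plates. TGI: total growth inhibition.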
How the values were obtained:
Assay in all cases: NCI anticancer screen, dose series, 48 h
U251 CNS = tested on: U251 CNS
CCRF-CEM leukemia = tested on: CCRF-CEM leukemia
K-562 leukemia = tested on: K-562 leukemia
MDA-N = tested on: MDA-N
UO-31 renal = tested on: UO-31 renal
NCI-H23 lung = tested on: NCI-H23 lung
HCT-116 colon = tested on: HCT-116 colon
MOLT-4 leukemia = tested on: MOLT-4 leukemia
RXF 393 renal = tested on: RXF 393 renal
NCI-H226 lung = tested on: NCI-H226 lung
IGROV1 ovarian = tested on: IGROV1 ovarian
HS 578T breast = tested on: HS 578T breast
MALME-3M melanoma = tested on: MALME-3M melanoma
HCC-2998 colon = tested on: HCC-2998 colon
OVCAR-4 ovarian = tested on: OVCAR-4 ovarian
OVCAR-3 ovarian = tested on: OVCAR-3 ovarian
PC-3 prostate = tested on: PC-3 prostate
SF-539 CNS = tested on: SF-539 CNS
NCI-H522 lung = tested on: NCI-H522 lung

SMILES	TGI (U251 CNS) [µM]	TGI (CCRF-CEM leukemia) [µM]	TGI (K-562 leukemia) [µM]	TGI (MDA-N) [µM]	TGI (UO-31 renal) [µM]	TGI (NCI-H23 lung) [µM]	TGI (HCT-116 colon) [µM]	TGI (MOLT-4 leukemia) [µM]	TGI (RXF 393 renal) [µM]	TGI (NCI-H226 lung) [µM]	TGI (IGROV1 ovarian) [µM]	TGI (HS 578T breast) [µM]	TGI (MALME-3M melanoma) [µM]	TGI (HCC-2998 colon) [µM]	TGI (OVCAR-4 ovarian) [µM]	TGI (OVCAR-3 ovarian) [µM]	TGI (PC-3 prostate) [µM]	TGI (SF-539 CNS) [µM]	TGI (NCI-H522 lung) [µM]
O=C(NCCNCCNC(=O)C(F)(F)F)C(F)(F)F	> 100	> 100	> 100	> 100	> 100	> 100	> 100	> 100	> 100	> 100	> 100	> 100	> 100	> 100	> 100	> 100	> 100		
C/C(=N\Nc1nc2ccccc2o1)c1cc(C)ncn1	> 100	> 100	> 100	> 100	0.311	> 43.7	> 100	3.09	32.1		1.51		33.1	> 48.6	27.5	> 54.7	> 100	5.77	
O=C(Cn1c2ccc(Br)cc2c2nc3ccccc3nc21)N/N=C/c1ccccc1	> 100		> 100		> 100	> 100			> 100	> 100	> 100					> 100	> 100	53.6	
Cc1n[nH]c(=O)n1/N=C/c1ccncc1	> 100	> 100	> 100	> 100	> 100	> 100	> 100	> 100	> 100	> 100	> 100	> 100	> 100	> 100	> 100	> 100		> 100	> 100
S=C1N=C(Cl)/C(=C\c2ccco2)N1	> 100	> 100	> 100		> 100	> 100	> 100		> 100	> 100	> 100	> 100	> 100		> 100	> 100	> 100	> 100	> 100
C[C@H](CCC(=O)O)[C@H]1CC[C@H]2[C@@H]3[C@H](O)C[C@@H]4C[C@H](O)CC[C@]4(C)[C@H]3CC[C@]12C	> 100	> 100	> 100	> 100	58.5	64.7	> 100	62	> 100	78.3	> 100		> 100	79.9	> 100		> 100	62.1	> 100
COc1ccc(CCNC(=O)CCc2ccccc2CO)cc1OC	> 100	> 100	> 100		> 100	> 100	> 100	> 100	> 100	> 100	> 100	> 100		> 100	> 100	> 100	> 100	> 100	> 100
CC1(C)CCC[C@]2(C)[C@@H]1CC[C@@]13O[C@@H]1C1=C(CO)C(=O)OC1=C[C@@H]23	67.4		> 100		26	46.5	12.8	> 100	36.4	30.2	29.4		23.7	46.7	55.9		57.4		24.7
CSc1nc2c(c(O)c(C)c(=O)n2C2OCC(OC(C)=O)C(OC(C)=O)C2OC(C)=O)c(=O)n1C (centres undefined)	> 100	> 100	> 100		> 100	> 100	> 100	> 100		> 100	> 100		> 100		> 100	> 100		> 100	> 100
COc1ccc(N2C(=O)[C@@H]3[C@H](C2=O)c2[nH]c4ccccc4c2C2CCC(C(C)(C)C)C[C@@H]23)cc1 (some centres undefined)	49.1	43.7	> 31.6		> 78.4	66.4	> 100	> 100	46	46.4	> 100		> 85	> 100		> 75.7		62.6	62.7
CC1CN=C(NS(=O)(=O)c2cc(C(=O)Nc3ccc(F)cc3)c(Cl)cc2S)NN1 (centres undefined)	> 100	> 100	> 100		> 100	> 100	> 100	> 100		> 100	> 100		70.1	> 100	> 100	> 100	> 100	> 100	94.2
COc1ccc(NS(=O)c2ccccc2OC)cc1 (centres undefined)	67.2	> 100	> 100	> 100	28.2	> 100	> 100	> 100		41.8	> 100	84.5	41.1		> 100	> 100		35.9	52.5
CCCC(=O)OCC1OC(n2cc(F)c(=O)[nH]c2=O)C(F)C1OC(=O)CCC (centres undefined)	> 100	> 100	> 100	> 100	> 100	> 100	> 100	> 100	> 100	> 100	> 100	> 100	> 100		> 100	> 100	> 100	27.5	> 100
CC(=O)N/N=C1/CC[C@@]2(C)C(=CC[C@H]3C4CCC(C(C)CCCC(C)C)[C@@]4(C)CCC32)C1(C)C (some centres undefined)	> 100	> 100	> 100		> 100	> 100	> 100	34.1		> 100	> 100	> 100	> 100		> 100	> 100	> 100		> 100

Reference: PubChem BioAssay (NCI)
